Data taken from US20060084704A1, “Methods and compositions for enhancing degradation of nuclear receptor transcription factors and uses thereof” (priority 2004, published 2006).
Entries after “also recorded” stand apart in the source; their conditions may differ.

Tests used:
[1] = system: testosterone-induced hair growth suppression; test: Androgen-induced alopecia model, hair re-growth in shaved mice; assay type: in vivo, C57BL/6J mice; details: topical testosterone 1% in the morning, JC9 0.02% in the afternoon, 20 days
Description: C57BL/6J mice were used in this animal model for hair loss and regrowth (Uno et al. (1990) J. Cutaneous Aging & Cosm. Derm., 1: 193, which is incorporated by reference in its entirety herein). Six-week-old male mice (6 to 7 animals per group) were shaved with an electric clipper, and then treated with a hair-removal cream for 1 to 2 minutes. […] One day after hair removal, a first group of animals each received 100 microliters of a 1% testosterone solution in ethanol, applied topically to the shaved area, once each morning for twenty consecutive days. A second group of animals each received 100 microliters of vehicle (ethanol) alone, applied topically to the shaved area, once each morning for twenty consecutive days. The first group of mice (testosterone-treated) were divided further into a control group and a treatment group. Also beginning one day after hair removal, each mouse in the control group received 100 microliters of a control solution (60% ethanol, 20% propylene glycol, and 20% water) and each mouse in the treatment group received 100 microliters of the test compound, JC9 (0.02% in the same 60% ethanol, 20% propylene glycol, and 20% water solution), applied topically to the shaved area, once each afternoon for twenty consecutive days. Hair re-growth in the shaved areas was observed and photographed at 12, 15, 18, 21, and 24 days after beginning of the topical treatments.

androgen receptor (AR) = target: T1, androgen receptor (AR) (Homo sapiens, UniProt P10275, T878A); test: Western blot of LNCaP cell lysates, AR; assay type: cell-based; details: 1 or 2 micromolar, 24 hours, presence or absence of DHT
T1 construct: LNCaP cells express an endogenous mutant AR that is found in prostate cancer patients; host or cells: LNCaP
T1 sequence (P10275 1-920 T878A): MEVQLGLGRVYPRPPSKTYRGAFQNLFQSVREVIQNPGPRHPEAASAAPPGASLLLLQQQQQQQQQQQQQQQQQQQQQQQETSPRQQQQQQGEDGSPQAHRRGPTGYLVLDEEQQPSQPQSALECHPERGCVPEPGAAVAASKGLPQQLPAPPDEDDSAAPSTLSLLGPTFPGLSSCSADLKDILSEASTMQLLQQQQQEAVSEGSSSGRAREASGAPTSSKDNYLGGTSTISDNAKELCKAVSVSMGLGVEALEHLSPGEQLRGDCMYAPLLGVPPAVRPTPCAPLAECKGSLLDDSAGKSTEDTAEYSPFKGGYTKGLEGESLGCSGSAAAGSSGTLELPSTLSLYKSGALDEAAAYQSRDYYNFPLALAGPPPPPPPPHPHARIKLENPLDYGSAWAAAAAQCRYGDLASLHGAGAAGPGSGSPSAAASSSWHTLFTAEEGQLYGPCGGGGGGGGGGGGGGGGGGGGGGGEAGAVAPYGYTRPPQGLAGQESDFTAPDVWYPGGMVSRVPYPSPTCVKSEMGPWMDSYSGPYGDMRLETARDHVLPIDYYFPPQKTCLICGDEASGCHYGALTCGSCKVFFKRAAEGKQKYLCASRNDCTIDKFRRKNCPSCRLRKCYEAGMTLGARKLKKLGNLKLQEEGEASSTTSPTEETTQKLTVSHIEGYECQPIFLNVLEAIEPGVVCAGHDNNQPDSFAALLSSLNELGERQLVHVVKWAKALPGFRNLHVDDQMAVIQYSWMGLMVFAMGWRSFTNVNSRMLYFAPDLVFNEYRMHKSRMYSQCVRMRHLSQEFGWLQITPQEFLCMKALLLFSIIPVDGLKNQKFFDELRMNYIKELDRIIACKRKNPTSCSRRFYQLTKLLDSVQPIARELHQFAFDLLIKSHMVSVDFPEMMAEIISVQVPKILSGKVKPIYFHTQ
Description: (§1) Human prostate cancer LNCaP cells and T47D cells were plated at a density of 7×10^5 cells per 60 millimeter tissue culture dish in […] (RPMI) medium containing 10% FBS. The medium was changed to RPMI or DME medium containing 10% charcoal-stripped serum 24 hours later to deplete cellular androgens or estrogens. After another 24 hours, treatment with the test compounds began. The test dose of JC15 was 1 or 2 micromolar and the test does of JC9 was 1, 5 and 10 micromolar. LNCap cells also received dihydrotestosterone (DHT) (3 nanomolar). Control cells received a corresponding amount of the vehicle, dimethylsulfoxide (DMSO) (<0.04%) for an equivalent exposure time. Cells were incubated with JC15 for 24 or 48 hours, and were lysed in 250 microliters of 1×SDS/PAGE loading buffer. Approximately 40 micrograms of total cellular protein was loaded in each lane of a pre-cast gel (NuPAGE, Invitrogen). Protein separation and transfer were performed following the manufacturer's instructions.
(§2) For the prostate cell lysates, androgen receptor (AR) protein was visualized by incubating the resultant membranes with an anti-AR antibody (BD-PharMingen), followed by chemiluminescence detection (ECL Plus, Amersham). […] The resultant protein signals were quantified using densitometry and NIH ImageJ software.

hsp70 = test: Western blot of LNCaP cell lysates, hsp70; assay type: cell-based, human; details: 1 or 2 micromolar, 24 hours, presence or absence of DHT
Description: as §1, §2

COc1ccc(C=CC(=O)C=C(O)C=Cc2ccc(OC)c(OC)c2)cc1OC [JC9, 5-hydroxy-1,7-bis(3,4-dimethoxyphenyl)-1,4,6-heptatrien-3-one]
hair re-growth in shaved areas [1]: rapid re-growth of hair in the shaved areas from day 10 to day 20; also recorded: hair growth on day 8 and fully re-growth of hair in the shaved areas after 20 days

CCOC(=O)CCC(C(=O)C=Cc1ccc(O)c(OC)c1)C(=O)C=Cc1ccc(O)c(OC)c1 (stereo not drawn) [JC15, 7-(4-hydroxy-3-methoxyphenyl)-4-[3-(4-hydroxy-3-methoxyphenyl)acryloyl]-5-oxo-hept-6-enoic acid ethyl ester]
cellular concentration of AR (androgen receptor (AR)): decreased
cellular concentration of hsp70 (hsp70): did not substantially affect
